Data: patent US8178668B2, “2-aminopyridine kinase inhibitors” (OSI Pharmaceuticals, LLC, priority 2008, dated 2012)
Structures can show the parent of a compound that is named as a salt.

What was measured:
RON (human) = RON (human) (Homo sapiens, UniProt Q04912); assay: RON kinase AlphaScreen assay (Km of ATP); assay type: biochemical; conditions: ATP at Km; at least duplicate experiments
Procedure: (§1) Person skilled in the art will appreciate that a variety of assay formats may be used to determine the activity of the compounds of this invention. For example, AlphaScreen (Amplified Luminescent Proximity Homogeneous Assay) technology was used with the kinases described below. Assay ATP concentrations for individual kinases are included in the text.
RON (human)—Km of ATP: RON assay is performed in a 384 well assay containing 200 ng/μL biotinylated poly(Glu,Tyr), 0.334 mM vanadate, desired concentration of ATP optimized for the enzyme in assay buffer (50 mM HEPES (pH=7.4), 12.5 mM MgCl2 and 1% glycerol). Desired compound is added in a final concentration of 1% DMSO with control being vehicle of DMSO alone. RON is diluted to the optimized (on a lot-by-lot basis) concentration in an enzyme diluent buffer (50 mM HEPES pH=7.4, 12.5 mM MgCl2 and 1% glycerol, 0.03% Brij35, 0.3 mM EGTA, lmM DTT, and 0.003% BSA). Enzyme is added to initiate the reaction and incubated for 30 min at RT. In subdued light, appropriate amount of PT66 donor and acceptor beads (diluted 1:260 from manufacturer's provision in a 25 mM Tris HCl (pH=7.5), 200 mM NaCl, 100 mM EDTA, 0.3% BSA buffer) are added to the wells. The plates, incubated for 1 h, are read on an AlphaQuest plate reader.

MET (human) = MET (human) (Homo sapiens, UniProt P08581); assay: MET kinase AlphaScreen assay (Km of ATP); assay type: biochemical; conditions: ATP at Km; at least duplicate experiments
MET (human), sequence (P08581 25-1390): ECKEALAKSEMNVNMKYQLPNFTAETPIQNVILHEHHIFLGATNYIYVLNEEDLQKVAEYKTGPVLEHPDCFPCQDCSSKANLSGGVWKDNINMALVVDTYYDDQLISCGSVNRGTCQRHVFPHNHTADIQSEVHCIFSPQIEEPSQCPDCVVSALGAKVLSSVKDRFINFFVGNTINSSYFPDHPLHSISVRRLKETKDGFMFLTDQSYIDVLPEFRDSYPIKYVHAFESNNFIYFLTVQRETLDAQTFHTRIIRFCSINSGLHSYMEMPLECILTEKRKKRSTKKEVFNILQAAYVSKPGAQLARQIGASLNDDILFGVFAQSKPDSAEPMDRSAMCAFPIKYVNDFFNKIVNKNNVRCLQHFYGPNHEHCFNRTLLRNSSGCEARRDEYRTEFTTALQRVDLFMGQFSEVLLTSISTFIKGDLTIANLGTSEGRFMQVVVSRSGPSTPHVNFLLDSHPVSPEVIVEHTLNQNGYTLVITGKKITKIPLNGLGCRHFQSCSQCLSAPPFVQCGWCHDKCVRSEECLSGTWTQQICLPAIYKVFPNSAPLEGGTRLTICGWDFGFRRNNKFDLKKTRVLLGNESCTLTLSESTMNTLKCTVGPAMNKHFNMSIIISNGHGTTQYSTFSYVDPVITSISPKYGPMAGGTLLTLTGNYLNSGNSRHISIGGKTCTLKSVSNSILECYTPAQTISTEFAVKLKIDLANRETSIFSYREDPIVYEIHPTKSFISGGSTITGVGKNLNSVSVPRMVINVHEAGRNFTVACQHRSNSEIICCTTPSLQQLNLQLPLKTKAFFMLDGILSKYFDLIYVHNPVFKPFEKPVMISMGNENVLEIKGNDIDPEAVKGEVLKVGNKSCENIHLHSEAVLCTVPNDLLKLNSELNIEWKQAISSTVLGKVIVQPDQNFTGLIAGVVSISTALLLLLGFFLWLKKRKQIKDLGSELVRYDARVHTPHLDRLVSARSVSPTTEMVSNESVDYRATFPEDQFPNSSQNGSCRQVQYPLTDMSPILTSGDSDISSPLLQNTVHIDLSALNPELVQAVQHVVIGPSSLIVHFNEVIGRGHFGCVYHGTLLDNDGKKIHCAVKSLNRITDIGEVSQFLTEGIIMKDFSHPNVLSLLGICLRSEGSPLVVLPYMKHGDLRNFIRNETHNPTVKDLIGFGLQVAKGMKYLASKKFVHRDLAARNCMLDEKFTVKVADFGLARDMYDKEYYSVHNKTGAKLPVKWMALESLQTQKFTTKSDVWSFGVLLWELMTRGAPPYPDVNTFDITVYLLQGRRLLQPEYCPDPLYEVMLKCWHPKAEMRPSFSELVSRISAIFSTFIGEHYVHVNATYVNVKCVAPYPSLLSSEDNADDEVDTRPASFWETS
Procedure: as §1
MET (human)—Km of ATP: MET assay is performed in a 384 well assay containing 200 ng/μL biotinylated poly(Glu,Tyr), 0.334 mM vanadate, desired concentration of ATP optimized for the enzyme in assay buffer (50 mM HEPES (pH=7.4), 5 mM MgCl2, 5 mM MnCl2, and 1% glycerol). Desired compound is added in a final concentration of 1% DMSO with control being vehicle of DMSO alone. MET is diluted to the optimized concentration (optimized on a lot-by-lot basis) in an enzyme diluent buffer (50 mM Tris pH=7.4, 1% glycerol, 0.03% Brij35, 0.24 mM EGTA, 1 mM DTT, and 0.003% BSA). Enzyme is added to initiate the reaction and incubated for 60 min at RT. In subdued light, appropriate amount of PT66 donor and acceptor beads (diluted 1:260 from manufacturer's provision in a 25 mM Tris HCl (pH=7.5), 400 mM NaCl, 100 mM EDTA, 0.3% BSA buffer) are added to the wells. The plates, incubated for 1 h, are read on an AlphaQuest plate reader

RON (human), sequence (Q04912 25-1400): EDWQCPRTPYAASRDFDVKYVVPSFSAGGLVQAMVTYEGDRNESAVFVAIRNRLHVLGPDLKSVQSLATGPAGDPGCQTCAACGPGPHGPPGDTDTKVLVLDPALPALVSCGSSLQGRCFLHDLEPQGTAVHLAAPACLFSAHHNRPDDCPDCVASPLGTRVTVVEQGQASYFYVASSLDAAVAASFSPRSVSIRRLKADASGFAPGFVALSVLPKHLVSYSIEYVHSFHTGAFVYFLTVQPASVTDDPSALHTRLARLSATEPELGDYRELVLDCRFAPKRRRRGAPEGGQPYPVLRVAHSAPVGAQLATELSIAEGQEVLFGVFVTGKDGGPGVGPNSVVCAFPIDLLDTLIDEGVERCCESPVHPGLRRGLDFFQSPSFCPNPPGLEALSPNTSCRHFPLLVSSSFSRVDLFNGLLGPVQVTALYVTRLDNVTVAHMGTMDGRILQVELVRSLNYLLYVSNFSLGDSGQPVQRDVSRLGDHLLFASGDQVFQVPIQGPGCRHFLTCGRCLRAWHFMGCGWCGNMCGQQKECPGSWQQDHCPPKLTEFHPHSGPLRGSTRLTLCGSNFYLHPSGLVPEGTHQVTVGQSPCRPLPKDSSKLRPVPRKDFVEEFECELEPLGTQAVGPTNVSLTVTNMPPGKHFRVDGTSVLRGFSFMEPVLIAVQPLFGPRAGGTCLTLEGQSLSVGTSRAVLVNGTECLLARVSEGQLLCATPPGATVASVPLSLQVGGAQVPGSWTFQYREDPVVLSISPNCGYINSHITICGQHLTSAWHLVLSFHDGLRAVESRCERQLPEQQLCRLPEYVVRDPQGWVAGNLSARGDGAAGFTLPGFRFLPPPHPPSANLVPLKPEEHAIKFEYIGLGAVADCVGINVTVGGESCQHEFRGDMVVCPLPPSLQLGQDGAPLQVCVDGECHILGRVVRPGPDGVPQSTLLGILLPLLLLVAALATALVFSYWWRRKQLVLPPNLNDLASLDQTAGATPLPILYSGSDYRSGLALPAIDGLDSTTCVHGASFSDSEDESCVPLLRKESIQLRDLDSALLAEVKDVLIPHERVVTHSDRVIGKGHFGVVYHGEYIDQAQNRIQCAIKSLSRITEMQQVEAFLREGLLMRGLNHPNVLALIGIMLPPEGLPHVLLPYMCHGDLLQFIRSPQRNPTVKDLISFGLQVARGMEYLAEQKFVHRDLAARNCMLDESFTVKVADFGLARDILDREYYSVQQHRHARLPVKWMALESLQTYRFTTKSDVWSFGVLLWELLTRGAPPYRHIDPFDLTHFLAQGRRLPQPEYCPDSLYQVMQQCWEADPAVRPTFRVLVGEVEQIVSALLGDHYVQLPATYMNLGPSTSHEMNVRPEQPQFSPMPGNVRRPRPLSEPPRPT

SMILES	IC50 (RON (human)) [nM]	IC50 (MET (human)) [nM]
Nc1ncc(-c2cnn(C3CCNCC3)c2)cc1-c1cc2cc(Cl)ccc2cn1 [Example 40, 3-(6-Chloroisoquinolin-3-yl)-5-(1-piperidin-4-yl-1H-pyrazol-4-yl)-pyridin-2-ylamine trihydrochloride]	100 to 1000	100 to 1000
Nc1ncc(-c2cnn(C3CCNCC3)c2)cc1-c1cc2ccc(Cl)cc2cn1 [Example 41, 3-(7-Chloroisoquinolin-3-yl)-5-(1-piperidin-4-yl-1H-pyrazol-4-yl)-pyridin-2-ylamine trihydrochloride]	1000 to 20000	100 to 1000
Nc1ncc(-c2cnn(C3CCNCC3)c2)cc1-c1cc2c(Cl)cccc2cn1 [Example 42, 3-(5-Chloroisoquinolin-3-yl)-5-(1-piperidin-4-yl-1H-pyrazol-4-yl)-pyridin-2-ylamine trihydrochloride]	100 to 1000	100 to 1000
Nc1ncc(-c2cnn(C3CCNCC3)c2)cc1-c1cc2cc(Cl)cc(Cl)c2cn1 [Example 43, 3-(6,8-Dichloroisoquinolin-3-yl)-5-(1-piperidin-4-yl-1H-pyrazol-4-yl)-pyridin-2-ylamine trihydrochloride]	100 to 1000	100 to 1000
COc1ccc2cc(-c3cc(-c4cnn(C5CCNCC5)c4)cnc3N)ncc2c1 [Example 44, 3-(7-Methoxyisoquinolin-3-yl)-5-(1-piperidin-4-yl-1H-pyrazol-4-yl)-pyridin-2-ylamine trihydrochloride]	1000 to 20000	1000 to 20000
COc1ccc2cnc(-c3cc(-c4cnn(C5CCNCC5)c4)cnc3N)cc2c1 [Example 45, 3-(6-Methoxyisoquinolin-3-yl)-5-(1-piperidin-4-yl-1H-pyrazol-4-yl)-pyridin-2-ylamine trihydrochloride]	1000 to 20000	100 to 1000
Nc1ncc(-c2cnn(C3CCNCC3)c2)cc1-c1cc2cc(F)cc(F)c2cn1 [Example 46, 3-(6,8-Difluoroisoquinolin-3-yl)-5-(1-piperidin-4-yl-1H-pyrazol-4-yl)-pyridin-2-ylamine trihydrochloride salt]	1000 to 20000	100 to 1000
Nc1ncc(-c2cnn(C3CCNCC3)c2)cc1-c1cc2cc(F)cc(Cl)c2cn1 [Example 47, 3-(8-Chloro-6-fluoroisoquinolin-3-yl)-5-(1-piperidin-4-yl-1H-pyrazol-4-yl)-pyridin-2-ylamine trihydrochloride salt]	100 to 1000	100 to 1000
Nc1ncc(-c2cnn(C3CCNCC3)c2)cc1-c1cc2c(-c3ccco3)ccc(F)c2cn1 [Example 48, 3-(8-Fluoro-5-furan-2-ylisoquinolin-3-yl)-5-(1-piperidin-4-yl-1H-pyrazol-4-yl)-pyridin-2-ylamine]	100 to 1000	100 to 1000
Nc1ncc(-c2cnn(C3CCNCC3)c2)cc1-c1cc2c(-c3ccoc3)ccc(F)c2cn1 [Example 49, 3-(8-Fluoro-5-furan-3-ylisoquinolin-3-yl)-5-(1-piperidin-4-yl-1H-pyrazol-4-yl)-pyridin-2-ylamine trihydrochloride]	100 to 1000	≤ 100
Nc1ncc(-c2cnn(C3CCNCC3)c2)cc1-c1cc2c(-c3ccccc3)ccc(F)c2cn1 [Example 50, 3-(8-Fluoro-5-phenylisoquinolin-3-yl)-5-(1-piperidin-4-yl-1H-pyrazol-4-yl)-pyridin-2-ylamine]	100 to 1000	100 to 1000
Nc1ncc(-c2cnn(C3CCNCC3)c2)cc1-c1cc2c(-c3cn[nH]c3)ccc(F)c2cn1 [Example 51, 3-[8-Fluoro-5-(1H-pyrazol-4-yl)-isoquinolin-3-yl]-5-(1-piperidin-4-yl-1H-pyrazol-4-yl)-pyridin-2-ylamine trihydrochloride]	≤ 100	≤ 100
Cn1cc(-c2ccc(F)c3cnc(-c4cc(-c5cnn(C6CCNCC6)c5)cnc4N)cc23)cn1 [Example 52, 3-[8-Fluoro-5-(1-methyl-1H-pyrazol-4-yl)-isoquinolin-3-yl]-5-(1-piperidin-4-yl-1H-pyrazol-4-yl)-pyridin-2-ylamine trihydrochloride]	≤ 100	≤ 100
Nc1ncc(-c2cnn(C3CCNCC3)c2)cc1-c1cc2c(-c3ccc[nH]3)ccc(F)c2cn1 [Example 53, 3-[8-Fluoro-5-(1H-pyrrol-2-yl)-isoquinolin-3-yl]-5-(1-piperidin-4-yl-1H-pyrazol-4-yl)-pyridin-2-ylamine]	100 to 1000	100 to 1000
Nc1ncc(-c2cnn(C3CCNCC3)c2)cc1-c1cc2c(-c3cccnc3)ccc(F)c2cn1 [Example 54, 3-(8-Fluoro-5-pyridin-3-ylisoquinolin-3-yl)-5-(1-piperidin-4-yl-1H-pyrazol-4-yl)-pyridin-2-ylamine trihydrochloride pyridin-2-ylamine trihydrochloride]	1000 to 20000	100 to 1000
Nc1ncc(-c2cnn(C3CCNCC3)c2)cc1-c1cc2c(-c3nccs3)ccc(F)c2cn1 [Example 55, 3-(8-Fluoro-5-thiazol-2-ylisoquinolin-3-yl)-5-(1-piperidin-4-yl-1H-pyrazol-4-yl)-pyridin-2-ylamine trihydrochloride]	1000 to 20000	100 to 1000
Nc1ncc(-c2cnn(C3CCNCC3)c2)cc1-c1cc2c(-c3cncs3)ccc(F)c2cn1 [Example 56, 3-(8-Fluoro-5-thiazol-5-ylisoquinolin-3-yl)-5-(1-piperidin-4-yl-1H-pyrazol-4-yl)-pyridin-2-ylamine trihydrochloride]	100 to 1000	100 to 1000
Nc1ncc(-c2cnn(C3CCN(C=O)CC3)c2)cc1-c1cc2c(Cl)ccc(F)c2cn1 [Example 57, 4-4-[6-Amino-5-(5-chloro-8-fluoroisoquinolin-3-yl)-pyridin-3-yl]-pyrazol-1-ylpiperidine-1-carbaldehyde]	1000 to 20000	100 to 1000
CN1CCC(n2cc(-c3cnc(N)c(-c4cc5c(Cl)ccc(F)c5cn4)c3)cn2)CC1 [Example 58, 3-(5-Chloro-8-fluoroisoquinolin-3-yl)-5-[1-(1-methylpiperidin-4-yl)-1H-pyrazol-4-yl]-pyridin-2-ylamine]	100 to 1000	100 to 1000
CN1CCN(c2ncc(-c3cnc(N)c(-c4cc5c(Cl)ccc(F)c5cn4)c3)s2)CC1 [Example 60, 3-(5-Chloro-8-fluoroisoquinolin-3-yl)-5-[2-(4-methylpiperazin-1-yl)-thiazol-5-yl]-pyridin-2-ylamine trihydrochloride]	1000 to 20000	1000 to 20000
Nc1ncc(-c2cnc(N3CCOCC3)s2)cc1-c1cc2c(Cl)ccc(F)c2cn1 [Example 61, 3-(5-Chloro-8-fluoroisoquinolin-3-yl)-5-(2-morpholin-4-ylthiazol-5-yl)-pyridin-2-ylamine]	> 20000	> 20000
Nc1ncc(-c2cnn([C@@H]3CCNC3)c2)cc1-c1cc2c(Cl)ccc(F)c2cn1 [Example 62, 3-(5-Chloro-8-fluoroisoquinolin-3-yl)-5-((R)-1-pyrrolidin-3-yl-1H-pyrazol-4-yl)-pyridin-2-ylamine trihydrochloride]	100 to 1000	100 to 1000
Nc1ncc(-c2cnn([C@H]3CCNC3)c2)cc1-c1cc2c(Cl)ccc(F)c2cn1 [Example 63, 3-(5-Chloro-8-fluoroisoquinolin-3-yl)-5-((S)-1-pyrrolidin-3-yl-1H-pyrazol-4-yl)-pyridin-2-ylamine trihydrochloride]	100 to 1000	100 to 1000
CN1C2CCC1CC(n1cc(-c3cnc(N)c(-c4cc5c(Cl)ccc(F)c5cn4)c3)cn1)C2 (stereo not shown) [Example 64, 3-(5-Chloro-8-fluoroisoquinolin-3-yl)-5-[1-(8-methyl-8-azabicyclo [3.2.1]-oct-3-yl)-1H-pyrazol-4-yl]-pyridin-2-ylamine]	100 to 1000	100 to 1000
Cn1cc(-c2cnc(N)c(-c3cc4c(Cl)ccc(F)c4cn3)c2)cn1 [Example 65, 3-(5-Chloro-8-fluoroisoquinolin-3-yl)-5-(1-methyl-1H-pyrazol-4-yl)-pyridin-2-ylamine bis-hydrochloride]	1000 to 20000	1000 to 20000
CC(C)n1cc(-c2cnc(N)c(-c3cc4c(Cl)ccc(F)c4cn3)c2)cn1 [Example 66, 3-(5-Chloro-8-fluoroisoquinolin-3-yl)-5-(1-isopropyl-1H-pyrazol-4-yl)-pyridin-2-ylamine bis-hydrochloride]	1000 to 20000	1000 to 20000
